Measurements as given in ChEMBL document CHEMBL1201862, “PubChem BioAssay data set” (2004).
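Interpolation was linear, between the two tested concentrations surrounding the appropriate level; five concentrations were tested over 48 hours in 96-well plates. Abbreviation: GI50, concentration required for 50% inhibition of growth.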 Activity calls are given as the source filed them. Rule as the data show it: active = GI50 up to about 1.1 µM and inactive = higher.

What was measured:
Test in all cases: NCI tumour cell line growth inhibition, 48 h
HT-29 = system: HT-29
SW-620 = system: SW-620
MDA-N = system: MDA-N
HCT-116 = system: HCT-116
SK-OV-3 = system: SK-OV-3
HOP-92 = system: HOP-92
MCF7 = system: MCF7
OVCAR-4 = system: OVCAR-4
PC-3 = system: PC-3
CCRF-CEM = system: CCRF-CEM
SK-MEL-2 = system: SK-MEL-2
SNB-19 = system: SNB-19
OVCAR-8 = system: OVCAR-8
T47D = system: T47D
Hs-578T = system: Hs-578T
RXF 393 = system: RXF 393
NCI-H226 = system: NCI-H226
NCI/ADR-RES = system: NCI/ADR-RES
U-251 = system: U-251
M14 = system: M14
OVCAR-5 = system: OVCAR-5
SF-268 = system: SF-268
NCI-H460 = system: NCI-H460
MDA-MB-435 = system: MDA-MB-435
CAKI-1 = system: CAKI-1
A549 = system: A549
MDA-MB-231 = system: MDA-MB-231
HOP-62 = system: HOP-62
NCI-H522 = system: NCI-H522
MOLT-4 = system: MOLT-4
BT-549 = system: BT-549
SK-MEL-28 = system: SK-MEL-28
SR = system: SR
786-0 = system: 786-0
UACC-257 = system: UACC-257
LOX IMVI = system: LOX IMVI
HL-60 = system: HL-60
Malme-3M = system: Malme-3M
KM12 = system: KM12
EKVX = system: EKVX
K562 = system: K562
COLO 205 = system: COLO 205
RPMI-8226 = system: RPMI-8226
SK-MEL-5 = system: SK-MEL-5
DU-145 = system: DU-145
SNB-75 = system: SNB-75
UO-31 = system: UO-31
SF-539 = system: SF-539
SF-295 = system: SF-295
NCI-H23 = system: NCI-H23
OVCAR-3 = system: OVCAR-3
UACC-62 = system: UACC-62
HCC 2998 = system: HCC 2998
SN12C = system: SN12C
HCT-15 = system: HCT-15
IGROV-1 = system: IGROV-1
ACHN = system: ACHN

Structure (SMILES): CCOC(=O)C(NC(=O)CC)(Nc1ccc(S(=O)(=O)Nc2onc(C)c2C)cc1)C(F)(F)F (configuration not stated)
- GI50 (HT-29): > 100 µM (inactive)
- GI50 (SW-620): > 100 µM (inactive)
- GI50 (MDA-N): > 100 µM (inactive)
- GI50 (HCT-116): > 100 µM (inactive)
- GI50 (SK-OV-3): > 100 µM (inactive)
- GI50 (HOP-92): > 100 µM (inactive)
- GI50 (MCF7): > 100 µM (inactive)
- GI50 (OVCAR-4): > 100 µM (inactive)
- GI50 (PC-3): > 100 µM (inactive)
- GI50 (CCRF-CEM): > 100 µM (inactive)
- GI50 (SK-MEL-2): > 100 µM (inactive)
- GI50 (SNB-19): > 100 µM (inactive)
- GI50 (OVCAR-8): > 100 µM (inactive)
- GI50 (T47D): > 100 µM (inactive)
- GI50 (Hs-578T): > 100 µM (inactive)
- GI50 (RXF 393): > 100 µM (inactive)
- GI50 (NCI-H226): > 100 µM (inactive)
- GI50 (NCI/ADR-RES): > 100 µM (inactive)
- GI50 (U-251): > 100 µM (inactive)
- GI50 (M14): > 100 µM (inactive)
- GI50 (OVCAR-5): > 100 µM (inactive)
- GI50 (SF-268): > 100 µM (inactive)
- GI50 (NCI-H460): > 100 µM (inactive)
- GI50 (MDA-MB-435): > 100 µM (inactive)
- GI50 (CAKI-1): > 100 µM (inactive)
- GI50 (A549): > 100 µM (inactive)
- GI50 (MDA-MB-231): > 100 µM (inactive)
- GI50 (HOP-62): > 100 µM (inactive)
- GI50 (NCI-H522): > 100 µM (inactive)
- GI50 (MOLT-4): > 100 µM (inactive)
- GI50 (BT-549): > 100 µM (inactive)
- GI50 (SK-MEL-28): > 100 µM (inactive)
- GI50 (SR): > 100 µM (inactive)
- GI50 (786-0): > 100 µM (inactive)
- GI50 (UACC-257): > 100 µM (inactive)
- GI50 (LOX IMVI): > 100 µM (inactive)
- GI50 (HL-60): > 100 µM (inactive)
- GI50 (Malme-3M): > 100 µM (inactive)
- GI50 (KM12): > 100 µM (inactive)
- GI50 (EKVX): > 100 µM (inactive)
- GI50 (K562): > 100 µM (inactive)
- GI50 (COLO 205): > 100 µM (inactive)
- GI50 (RPMI-8226): > 100 µM (inactive)
- GI50 (SK-MEL-5): > 100 µM (inactive)
- GI50 (DU-145): > 100 µM (inactive)
- GI50 (SNB-75): 14.9 µM (inactive)
- GI50 (UO-31): > 100 µM (inactive)
- GI50 (SF-539): > 100 µM (inactive)
- GI50 (SF-295): > 100 µM (inactive)
- GI50 (NCI-H23): > 100 µM (inactive)
- GI50 (OVCAR-3): > 100 µM (inactive)
- GI50 (UACC-62): > 100 µM (inactive)
- GI50 (HCC 2998): > 100 µM (inactive)
- GI50 (SN12C): > 100 µM (inactive)
- GI50 (HCT-15): > 100 µM
- GI50 (IGROV-1): > 100 µM (inactive)
- GI50 (ACHN): > 100 µM (inactive)
